From US9771369B2, “Compounds and methods for kinase modulation, and indications therefor” (Plexxikon Inc., priority 2014, dated 2017) come the findings set out here.

The term IC50 denotes the midpoint of a concentration-inhibition curve.

In this assay the target is c-kit mutant D816V (Homo sapiens (Human), UniProt P10721, D816V/DEL694-753). Nature of the assay: c-Kit mutant D816V biochemical assay (AlphaScreen kinase activity). The protocol:
The c-kit mutant D816V (or kinase domain thereof) is an active kinase in AlphaScreen. IC50 values are determined with respect to inhibition of c-Kit mutant D816V kinase activity, where inhibition of phosphorylation of a peptide substrate is measured as a function of compound concentration. Compounds to be tested were dissolved in DMSO to a concentration of 30 mM. These were diluted […] of DMSO (4 mM) and 1 μl was added to an assay plate. These were then serially diluted 1:3 (50 μl to […] DMSO) for a total of 8 points. Plates were prepared such that each kinase reaction is […] in 1× kinase buffer (25 mM HEPES, pH 7.2, 8 mM MgCl2, 2 mM MnCl2, 50 mM NaCl, 0.01% Brij, 1 mM DTT, 0.01% BSA), 5% DMSO and 10 μM ATP. Substrate was 30 nM biotin-(E4Y)10 (EMD Millipore, Cat#12-440). C-kit mutant D816V kinase was at 0.75 ng per sample. After incubation of the kinase reaction for 30 minutes at room temperature, 5 μl of donor beads (Streptavidin coated beads (Perkin Elmer Life Science) final concentration 7.5 μg/ml) in stop buffer (25 mM Hepes pH 7.5, 100 mM EDTA, 0.01% BSA) was added, the sample was mixed and incubated for 30 minutes at room temperature before adding […] of acceptor beads (PY30 coated beads (Perkin Elmer Life Science) final concentration 7.5 μg/ml) in stop buffer. The samples were incubated for 60 minutes at room temperature and the signal per well was read on EnVision reader. Phosphorylated substrate results in binding of the PY30 antibody and association of the donor and acceptor beads such that signal correlates with kinase activity. The signal vs. compound concentration was used to determine the IC50.
Recombinant c-kit mutant D816V (residues 551-934, kinase insertion domain residues 694-753 deleted) with a 6×-histidine N-terminal tag (SEQ ID NO: 3) was expressed in E. coli Arctic Express (DE3) RIL (Stratagene). Cells were grown in Terrific Broth (TB) media to an OD600 of 0.6 at 37° C. at which temperature was reduced to 10° C., protein was induced with 1.0 mM IPTG for 18 hours and harvested by centrifugation at 8000×g for 30 minutes. Cells were re-suspended in 0.1M KPO4 pH 8.0, 250 mM NaCl, 10% Glycerol, 0.75% NP-40, 25 mM Imidazole, 5 mM BME with 0.2 mg/ml Lysosyme, 2.0 mM PMSF, 25 μg/ml DNAse I, incubated in ice for 30 minutes and lyzed with a cell disruptor (MicroFluidics). The lysate was clarified by centrifugation at 30,000×g for 2 hours. The protein was captured with Talon resin (Clontech). Contaminating proteins were washed off with 25 mM Tris-HCl pH 8.3, 250 mM NaCl, 15% Glycerol, 1% Triton X-100, and protein eluted using 100 mM EDTA. The protein was further purified using Gel Filtration column 26/600 Superdex 300 (GE) in 50 mM Tris-HCl , pH 8.0, 250 mM NaCl, 15% Glycerol, 5 mM BME. The protein was aliquoted and flash-frozen in liquid Nitrogen.
(In general: In Alpha technology, singlet oxygen from a donor bead excites a nearby acceptor bead.)

Structures are written as SMILES.

Sequence of c-kit mutant D816V (P10721 other isoform, or with tags, fused parts or gaps D816V/del 694-753): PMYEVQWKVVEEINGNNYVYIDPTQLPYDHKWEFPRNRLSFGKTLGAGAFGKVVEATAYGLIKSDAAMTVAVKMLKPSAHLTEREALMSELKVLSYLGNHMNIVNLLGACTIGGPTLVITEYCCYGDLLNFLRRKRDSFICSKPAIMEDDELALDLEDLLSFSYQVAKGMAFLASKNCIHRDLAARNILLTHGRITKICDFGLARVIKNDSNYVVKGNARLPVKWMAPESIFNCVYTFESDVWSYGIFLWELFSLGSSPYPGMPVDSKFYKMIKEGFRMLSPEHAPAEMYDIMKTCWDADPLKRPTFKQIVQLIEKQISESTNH

The molecule `COc1cc(-c2cc3c(N4CCC(c5nc(C)c(-c6ccc(F)cc6)[nH]5)CC4)ncnc3[nH]2)ccn1` [P-3007, 4-[4-[5-(4-fluorophenyl)-4-methyl-1H-imidazol-2-yl]-1-piperidyl]-6-(2-methoxy-4-pyridyl)-7H-pyrrolo[2,3-d]pyrimidine] showed an IC50 of 0.0001 to 1 µM. `COc1cc(-c2cc3c(N4CCC(c5nc(C6CC6)c(-c6ccccc6)[nH]5)CC4)ncnc3[nH]2)ccn1` [P-3008, 4-[4-(4-cyclopropyl-5-phenyl-1H-imidazol-2-yl)-1-piperidyl]-6-(2-methoxy-4-pyridyl)-7H-pyrrolo[2,3-d]pyrimidine] showed an IC50 of 0.0001 to 1 µM. In turn, `Fc1ccc(-c2cc3c(N4CCC(c5nc(C6CC6)c(-c6ccccc6)[nH]5)CC4)ncnc3[nH]2)cc1` [P-3009, 4-[4-(4-cyclopropyl-5-phenyl-1H-imidazol-2-yl)-1-piperidyl]-6-(4-fluorophenyl)-7H-pyrrolo[2,3-d]pyrimidine] came in with an IC50 of 0.0001 to 1 µM. The result for `N#Cc1ccc(-c2cc3c(N4CCC(c5nc(C6CC6)c(-c6ccccc6)[nH]5)CC4)ncnc3[nH]2)cc1` [P-3010, 4-[4-[4-(4-cyclopropyl-5-phenyl-1H-imidazol-2-yl)-1-piperidyl]-7H-pyrrolo[2,3-d]pyrimidin-6-yl]benzonitrile] reads 0.0001 to 1 µM; that for `Cc1nc(C2CCN(c3ncnc4[nH]c(-c5ccc(F)cc5)cc34)CC2)[nH]c1-c1cccc(OC(F)(F)F)c1` [P-3011, 6-(4-fluorophenyl)-4-[4-[4-methyl-5-[3-(trifluoromethoxy)phenyl]-1H-imidazol-2-yl]-1-piperidyl]-7H-pyrrolo[2,3-d]pyrimidine], 0.0001 to 1 µM. The result for `CCOc1cc(-c2[nH]c(C3CCN(c4ncnc5[nH]c(-c6ccc(C#N)cc6)cc45)CC3)nc2C)ccc1C` [P-3095, 4-[4-[4-[5-(3-ethoxy-4-methyl-phenyl)-4-methyl-1H-imidazol-2-yl]-1-piperidyl]-7H-pyrrolo[2,3-d]pyrimidin-6-yl]benzonitrile] reads 0.0001 to 1 µM. The result for `CCOc1cc(-c2[nH]c(C3CCN(c4ncnc5[nH]c(-c6ccnc(OC)c6)cc45)CC3)nc2C)ccc1C` [P-3096, 4-[4-[5-(3-ethoxy-4-methyl-phenyl)-4-methyl-1H-imidazol-2-yl]-1-piperidyl]-6-(2-methoxy-4-pyridyl)-7H-pyrrolo[2,3-d]pyrimidine] reads 0.0001 to 1 µM; that for `Cc1nc(C2CCN(c3ncnc4[nH]c(-c5ccnc(C(F)(F)F)c5)cc34)CC2)[nH]c1-c1ccccc1` [P-3097, 4-[4-(4-methyl-5-phenyl-1H-imidazol-2-yl)-1-piperidyl]-6-[2-(trifluoromethyl)-4-pyridyl]-7H-pyrrolo[2,3-d]pyrimidine], 0.0001 to 1 µM.

For the molecule `Cc1nc(C2CCN(c3ncnc4[nH]c(-c5cccc(C(F)(F)F)c5)cc34)CC2)[nH]c1-c1ccccc1` [P-3098, 4-[4-(4-methyl-5-phenyl-1H-imidazol-2-yl)-1-piperidyl]-6-[3-(trifluoromethyl)phenyl]-7H-pyrrolo[2,3-d]pyrimidine], the IC50 fell in the range of 0.0001 to 1 µM. The result for `CCOc1ccc(-c2[nH]c(C3(C)CCN(c4ncnc5[nH]c(C)cc45)CC3)nc2C)cc1C` [P-3099, 4-[4-[5-(4-ethoxy-3-methyl-phenyl)-4-methyl-1H-imidazol-2-yl]-4-methyl-1-piperidyl]-6-methyl-7H-pyrrolo[2,3-d]pyrimidine] reads 0.0001 to 1 µM. The result for `CCc1ccc(-c2[nH]c(C3(C)CCN(c4ncnc5[nH]c(C)cc45)CC3)nc2C)cc1` [P-3101, 4-[4-[5-(4-ethylphenyl)-4-methyl-1H-imidazol-2-yl]-4-methyl-1-piperidyl]-6-methyl-7H-pyrrolo[2,3-d]pyrimidine] reads 0.0001 to 1 µM; that for `COc1ccc(-c2[nH]c(C3(C)CCN(c4ncnc5[nH]c(C)cc45)CC3)nc2C)cc1C` [P-3102, 4-[4-[5-(4-methoxy-3-methyl-phenyl)-4-methyl-1H-imidazol-2-yl]-4-methyl-1-piperidyl]-6-methyl-7H-pyrrolo[2,3-d]pyrimidine], 0.0001 to 1 µM. Then `COc1cc(-c2cc3c(N4CCC(c5nc(C)c(-c6ccc(C)c(OC)c6)[nH]5)CC4)ncnc3[nH]2)ccn1` [P-3104, 4-[4-[5-(3-methoxy-4-methyl-phenyl)-4-methyl-1H-imidazol-2-yl]-1-piperidyl]-6-(2-methoxy-4-pyridyl)-7H-pyrrolo[2,3-d]pyrimidine], with 0.0001 to 1 µM; and `COc1cc(-c2[nH]c(C3(C)CCN(c4ncnc5[nH]c(C)cc45)CC3)nc2C)ccc1C` [P-3105, 4-[4-[5-(3-methoxy-4-methyl-phenyl)-4-methyl-1H-imidazol-2-yl]-4-methyl-1-piperidyl]-6-methyl-7H-pyrrolo[2,3-d]pyrimidine], with 0.0001 to 1 µM. The molecule `COc1cc(-c2[nH]c(C3CCN(c4ncnc5[nH]c(-c6ccc(C#N)cc6)cc45)CC3)nc2C)ccc1C` [P-3106, 4-[4-[4-[5-(3-methoxy-4-methyl-phenyl)-4-methyl-1H-imidazol-2-yl]-1-piperidyl]-7H-pyrrolo[2,3-d]pyrimidin-6-yl]benzonitrile] showed an IC50 of 0.0001 to 1 µM. The result for `Cc1nc(C2CCN(c3ncnc4[nH]c(-c5cnn(C(F)F)c5)cc34)CC2)[nH]c1-c1ccc(F)cc1` [P-3107, 6-[1-(difluoromethyl)pyrazol-4-yl]-4-[4-[5-(4-fluorophenyl)-4-methyl-1H-imidazol-2-yl]-1-piperidyl]-7H-pyrrolo[2,3-d]pyrimidine] reads 0.0001 to 1 µM; that for `COc1ccc(-c2[nH]c(C3CCN(c4ncnc5[nH]c(-c6cnn(C(F)F)c6)cc45)CC3)nc2C)cc1` [P-3108, 6-[1-(difluoromethyl)pyrazol-4-yl]-4-[4-[5-(4-methoxyphenyl)-4-methyl-1H-imidazol-2-yl]-1-piperidyl]-7H-pyrrolo[2,3-d]pyrimidine], 0.0001 to 1 µM; that for `Cc1nc(C2CCN(c3ncnc4[nH]c(-c5ccc(F)cc5)cc34)CC2)[nH]c1-c1ccc2c(c1)OC(F)(F)O2` [P-3109, 4-[4-[5-(2,2-difluoro-1,3-benzodioxol-5-yl)-4-methyl-1H-imidazol-2-yl]-1-piperidyl]-6-(4-fluorophenyl)-7H-pyrrolo[2,3-d]pyrimidine], 0.0001 to 1 µM. For the molecule `Cc1nc(C2CCN(c3ncnc4[nH]c(-c5ccc(C#N)cc5)cc34)CC2)[nH]c1-c1ccc2c(c1)OC(F)(F)O2` [P-3110, 4-[4-[4-[5-(2,2-difluoro-1,3-benzodioxol-5-yl)-4-methyl-1H-imidazol-2-yl]-1-piperidyl]-7H-pyrrolo[2,3-d]pyrimidin-6-yl]benzonitrile], the IC50 was in the range of 0.0001 to 1 µM.

As for `COc1cc(-c2cc3c(N4CCC(c5nc(C)c(-c6ccc7c(c6)OC(F)(F)O7)[nH]5)CC4)ncnc3[nH]2)ccn1` [P-3111, 4-[4-[5-(2,2-difluoro-1,3-benzodioxol-5-yl)-4-methyl-1H-imidazol-2-yl]-1-piperidyl]-6-(2-methoxy-4-pyridyl)-7H-pyrrolo[2,3-d]pyrimidine], the IC50 fell in the range of 0.0001 to 1 µM. `COc1ccc(-c2[nH]c(C3CCN(c4ncnc5[nH]c(-c6ccc(C#N)cc6)cc45)CC3)nc2C)cn1` [P-3112, 4-[4-[4-[5-(6-methoxy-3-pyridyl)-4-methyl-1H-imidazol-2-yl]-1-piperidyl]-7H-pyrrolo[2,3-d]pyrimidin-6-yl]benzonitrile] registered an IC50 of 0.0001 to 1 µM. The result for `Cc1nc(C2CCN(c3ncnc4[nH]c(-c5ccc(C#N)cc5)cc34)CC2)[nH]c1-c1ccc(OC(F)F)cc1` [P-3113, 4-[4-[4-[5-[4-(difluoromethoxy)phenyl]-4-methyl-1H-imidazol-2-yl]-1-piperidyl]-7H-pyrrolo[2,3-d]pyrimidin-6-yl]benzonitrile] reads 0.0001 to 1 µM; that for `COc1cccc(-c2[nH]c(C3CCN(c4ncnc5[nH]c(-c6cnn(C(F)F)c6)cc45)CC3)nc2C)c1` [P-3114, 6-[1-(difluoromethyl)pyrazol-4-yl]-4-[4-[5-(3-methoxyphenyl)-4-methyl-1H-imidazol-2-yl]-1-piperidyl]-7H-pyrrolo[2,3-d]pyrimidine], 0.0001 to 1 µM.
